The compounds below were run against T1, Full-length USP19 (Homo sapiens, UniProt O94966) (assay: USP19 fluorescence polarisation (FP) homogeneous assay with Ubiquitin-Lys-TAMRA substrate). Conditions: 2.5 nM USP19, 30 min pre-incubation, average of at least two duplicate experiments.
T1 construct: Full-length USP19 was purchased from Boston Biochem (E-576); purchased Boston Biochem E-576
T1 sequence (O94966 1-1318): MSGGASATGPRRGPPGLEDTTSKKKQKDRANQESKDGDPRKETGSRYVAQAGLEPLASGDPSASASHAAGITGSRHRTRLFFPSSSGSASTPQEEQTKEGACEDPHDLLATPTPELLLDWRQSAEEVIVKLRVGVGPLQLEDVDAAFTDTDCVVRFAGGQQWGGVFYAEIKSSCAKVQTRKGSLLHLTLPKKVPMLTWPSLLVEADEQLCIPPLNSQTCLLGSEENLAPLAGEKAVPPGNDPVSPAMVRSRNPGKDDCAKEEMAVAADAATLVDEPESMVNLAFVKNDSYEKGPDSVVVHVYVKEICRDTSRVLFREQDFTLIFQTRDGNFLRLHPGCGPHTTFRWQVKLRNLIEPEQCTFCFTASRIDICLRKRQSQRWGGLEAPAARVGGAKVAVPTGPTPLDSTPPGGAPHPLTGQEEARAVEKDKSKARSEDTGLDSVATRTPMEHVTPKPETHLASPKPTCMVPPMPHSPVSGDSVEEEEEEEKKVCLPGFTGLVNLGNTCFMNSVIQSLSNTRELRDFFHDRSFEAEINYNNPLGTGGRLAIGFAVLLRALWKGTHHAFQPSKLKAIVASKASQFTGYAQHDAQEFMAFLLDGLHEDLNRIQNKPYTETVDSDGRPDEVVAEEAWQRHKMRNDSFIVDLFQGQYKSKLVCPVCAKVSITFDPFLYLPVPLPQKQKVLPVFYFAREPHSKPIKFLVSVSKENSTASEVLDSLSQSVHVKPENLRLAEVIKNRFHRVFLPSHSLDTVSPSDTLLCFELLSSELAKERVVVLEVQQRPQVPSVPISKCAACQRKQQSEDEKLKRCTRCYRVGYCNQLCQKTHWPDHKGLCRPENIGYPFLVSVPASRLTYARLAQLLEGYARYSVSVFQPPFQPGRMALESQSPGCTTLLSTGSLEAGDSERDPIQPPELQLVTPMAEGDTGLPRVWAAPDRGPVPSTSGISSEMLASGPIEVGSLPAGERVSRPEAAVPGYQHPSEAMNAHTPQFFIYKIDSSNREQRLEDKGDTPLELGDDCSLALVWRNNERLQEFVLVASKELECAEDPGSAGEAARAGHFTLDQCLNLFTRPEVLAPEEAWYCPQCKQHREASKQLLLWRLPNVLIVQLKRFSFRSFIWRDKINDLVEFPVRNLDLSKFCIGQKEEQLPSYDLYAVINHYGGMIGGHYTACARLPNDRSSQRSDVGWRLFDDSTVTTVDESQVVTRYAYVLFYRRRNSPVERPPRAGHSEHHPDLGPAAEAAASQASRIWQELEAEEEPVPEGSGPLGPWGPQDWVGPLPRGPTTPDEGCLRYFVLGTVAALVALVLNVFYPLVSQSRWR
Format: biochemical
In short: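 Full-length USP19 preincubated 30 min at RT with inhibitor (200 μM to 2 μM series, 8–18 points) before adding 500 nM Ubiquitin-Lys-TAMRA substrate.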

`O=C(N1CC[C@@](O)(Cn2cnc(-c3ccccc3)cc2=O)C2(CCCC2)C1)N1CCNC[C@@H]1c1ccccc1` [Example 210, 3-(((S)-10-Hydroxy-7-((S)-2-phenylpiperazine-1-carbonyl)-7-azaspiro[4.5]decan-10-yl)methyl)-6-phenylpyrimidin-4(3H)-one] and `CN1CCN(C(=O)N2CC[C@@](O)(Cn3cnc(-c4ccccc4)cc3=O)C3(CCCC3)C2)[C@H](c2ccccc2)C1` [Example 281, 3-(((S)-10-Hydroxy-7-((R)-4-methyl-2-phenylpiperazine-1-carbonyl)-7-azaspiro[4.5]decan-10-yl)methyl)-6-phenylpyrimidin-4(3H)-one] cannot be ordered by IC50: under 500 nM for the first, under 500 nM for the second.

`CNc1ncc2c(=O)n(CC3(O)CCN(C(=O)[C@H](C)CC(F)(F)F)CC34CCCC4)ccc2n1` (stereo partly drawn) [Example 57, 6-((10-Hydroxy-7-((R)-4,4,4-trifluoro-2-methylbutanoyl)-7-azaspiro[4.5]decan-10-yl)methyl)-2-(methylamino)pyrido[4,3-d]pyrimidin-5(6H)-one] and `CSc1ncc2c(=O)n(CC3(O)CCN(C(=O)[C@H](C)CC(F)(F)F)CC34CCCC4)cnc2n1` (stereo partly drawn) [Example 161, 3-((10-Hydroxy-7-((R)-4,4,4-trifluoro-2-methylbutanoyl)-7-azaspiro[4.5]decan-10-yl)methyl)-7-(methylthio)pyrimido[4,5-d]pyrimidin-4(3H)-one] fall in the same range of IC50: 500 to 5000 nM for the first, 500 to 5000 nM for the second.

First: C[C@H](CC1CCCCC1)C(=O)N1CCC(O)(Cn2cc(-c3cccnc3)ncc2=O)C2(CCCC2)C1 (stereo partly drawn) [Example 19, 1-((7-((R)-3-Cyclohexyl-2-methylpropanoyl)-10-hydroxy-7-azaspiro[4.5]decan-10-yl)methyl)-5-(pyridin-3-yl)pyrazin-2(1H)-one]
Second: C[C@H](CC1CCCCC1)C(=O)N1CCC(O)(Cn2cc([S+](C)[O-])c(-c3ccccc3)cc2=O)C2(CCCC2)C1 (stereo partly drawn) [Example 79, 1-((7-((R)-3-Cyclohexyl-2-methylpropanoyl)-10-hydroxy-7-azaspiro[4.5]decan-10-yl)methyl)-5-(methylsulfinyl)-4-phenylpyridin-2(1H)-one]
The IC50 of the first is higher: 500 to 5000 nM for the first, under 500 nM for the second.

`C[C@H](CC1CCCCC1)C(=O)N1CCC(O)(CN2CCNCC2=O)C2(CCCC2)C1` (stereo partly shown) [Example 39] and `C[C@H](CC1CCCCC1)C(=O)N1CCC(O)(CN2CCN(C(=O)OCc3ccccc3)CC2=O)C2(CCCC2)C1` (stereo partly drawn) [Example 47, Benzyl 4-((7-((R)-3-cyclohexyl-2-methylpropanoyl)-10-hydroxy-7-azaspiro[4.5]decan-10-yl)methyl)-3-oxopiperazine-1-carboxylate] fall in the same range of IC50: 500 to 5000 nM for the first, 500 to 5000 nM for the second.

Compared with `C[C@H](CC1CCCCC1)C(=O)N1CCC(O)(Cn2cc(S(C)(=N)=O)c(Cl)cc2=O)C(C)(C)C1` (stereo partly drawn) [Example 67, 4-Chloro-1-((1-((R)-3-cyclohexyl-2-methylpropanoyl)-4-hydroxy-3,3-dimethylpiperidin-4-yl)methyl)-5-(S-methylsulfonimidoyl)pyridin-2(1H)-one], `Cc1cn(CC2(O)CCN(C(=O)[C@H](C)CC3CCCCC3)CC2(C)C)c(=O)cn1` (stereo partly drawn) [Example 21, 1-((1-((R)-3-Cyclohexyl-2-methylpropanoyl)-4-hydroxy-3,3-dimethylpiperidin-4-yl)methyl)-5-methylpyrazin-2(1H)-one] is higher in IC50: 500 to 5000 nM for the first, 5000 to 50000 nM for the second. The first is the more potent here.

First: CN(C)C(=O)c1cn(CC2(O)CCN(C(=O)N(C)C3CCCCC3)CC23CCCC3)c(=O)cc1-c1ccccc1 (stereo not shown) [Example 89, N-Cyclohexyl-10-((5-(dimethylcarbamoyl)-2-oxo-4-phenylpyridin-1(2H)-yl)methyl)-10-hydroxy-N-methyl-7-azaspiro[4.5]decane-7-carboxamide]
Second: C[C@H](CC1CCCCC1)C(=O)N1CCC(O)(Cn2cc(N=S(C)(C)=O)c(-c3ccccc3)cc2=O)C2(CCCC2)C1 (stereo partly drawn) [Example 72, 1-((7-((R)-3-Cyclohexyl-2-methylpropanoyl)-10-hydroxy-7-azaspiro[4.5]decan-10-yl)methyl)-5-((dimethyl(oxo)-λ^6-sulfaneylidene)amino)-4-phenylpyridin-2(1H)-one]
The IC50 of the first is higher: 5000 to 50000 nM for the first, under 500 nM for the second. The second is the more potent here.

First: O=C(N1CCC(O)(Cn2ccncc2=O)C2(CCCC2)C1)N1CCNC[C@H]1c1ccccc1 (stereo partly drawn) [Example 91, 1-((10-Hydroxy-7-((R)-2-phenylpiperazine-1-carbonyl)-7-azaspiro[4.5]decan-10-yl)methyl)pyrazin-2(1H)-one]
Second: O=C(N1CCC(O)(Cn2ccc3ccncc3c2=O)C2(CCCC2)C1)N1CCNC[C@H]1c1ccccc1 (stereo partly drawn) [Example 171, 2-((10-Hydroxy-7-((R)-2-phenylpiperazine-1-carbonyl)-7-azaspiro[4.5]decan-10-yl)methyl)-2,7-naphthyridin-1(2H)-one]
The IC50 of the first is higher: 500 to 5000 nM for the first, under 500 nM for the second.

First: CC(CC1CCCCC1)C(=O)N1CCC(O)(CN2CC(Cc3ccccc3)CC2=O)CC1 (stereo not shown) [Example 43, 4-Benzyl-1-((1-(3-cyclohexyl-2-methylpropanoyl)-4-hydroxypiperidin-4-yl)methyl)pyrrolidin-2-one]
Second: CC1(C)CN(C(=O)CCC2CCCCC2)CCC1(O)CN1CC(Cc2ccccc2)CC1=O (stereo not shown) [Example 45, 4-Benzyl-1-((1-(3-cyclohexylpropanoyl)-4-hydroxy-3,3-dimethylpiperidin-4-yl)methyl)pyrrolidin-2-one]
The IC50 of the first is lower: 5000 to 50000 nM for the first, 50000 to 250000 nM for the second. The first is the more potent here.

`O=C(N1CC[C@@](O)(Cn2cnc(-c3ccc4c(c3)COC4)cc2=O)C2(CCCC2)C1)N1CCNC[C@H]1c1ccccc1` [Example 347, 6-(1,3-Dihydro-isobenzofuran-5-yl)-3-(((S)-10-hydroxy-7-((R)-2-phenylpiperazine-1-carbonyl)-7-aza-spiro[4.5]decan-10-yl)methyl)pyrimidin-4(3H)-one] and `Cc1ccc(-c2cc(=O)n(C[C@]3(O)CCN(C(=O)N4CCNC[C@H]4c4ccccc4)CC34CCCC4)cn2)cc1` [Example 342, 3-(((S)-10-Hydroxy-7-((R)-2-phenylpiperazine-1-carbonyl)-7-azaspiro[4.5]decan-10-yl)methyl)-6-(p-tolyl)pyrimidin-4(3H)-one] cannot be ordered by IC50: under 500 nM for the first, under 500 nM for the second.

`CC1(C)CN(C(=O)N2CCNC[C@H]2c2ccccc2)CC[C@@]1(O)Cn1ccc(-c2ccccc2)cc1=O` [Example 288, 1-(((S)-4-Hydroxy-3,3-dimethyl-1-((R)-2-phenylpiperazine-1-carbonyl)piperidin-4-yl)methyl)-4-phenylpyridin-2(1H)-one] and `CC1(C)CN(C(=O)N2CCOC[C@H]2c2ccccc2)CC[C@@]1(O)Cn1ccc(-c2ccccc2)cc1=O` [Example 286] cannot be ordered by IC50: under 500 nM for the first, under 500 nM for the second.

`CS(=N)(=O)c1cn(CC2(O)CCN(C(=O)N3CCOC[C@H]3c3ccccc3)CC23CCCC3)c(=O)cc1-c1ccccc1` (stereo partly drawn) [Example 190, 1-((10-Hydroxy-7-((R)-3-phenylmorpholine-4-carbonyl)-7-azaspiro[4.5]decan-10-yl)methyl)-5-(S-methylsulfonimidoyl)-4-phenylpyridin-2(1H)-one] and `O=C(N1CCC(O)(Cn2cnc(-c3ccccc3)cc2=O)C2(CCC2)C1)N1CCOC[C@H]1c1ccccc1` (stereo partly drawn) [Example 305, 3-((9-Hydroxy-6-((R)-3-phenylmorpholine-4-carbonyl)-6-azaspiro[3.5]nonan-9-yl)methyl)-6-phenylpyrimidin-4(3H)-one] cannot be ordered by IC50: under 500 nM for the first, under 500 nM for the second.

First: CC1(C)CCC(N2CCN(CC3(O)CCN(C(=O)NCc4ccccc4)CC34CCCC4)C(=O)C2)CC1 (stereo not shown) [Example 115, N-Benzyl-10-((4-(4,4-dimethylcyclohexyl)-2-oxopiperazin-1-yl)methyl)-10-hydroxy-7-azaspiro[4.5]decane-7-carboxamide]
Second: O=C(N1CCC(O)(Cn2cnc(-c3ccccc3)cc2=O)C2(CCCC2)C1)N1CCC[C@H]1Cc1cccs1 (stereo partly drawn) [Example 267, 3-((10-Hydroxy-7-((S)-2-(thiophen-2-ylmethyl)pyrrolidine-1-carbonyl)-7-azaspiro[4.5]decan-10-yl)methyl)-6-phenylpyrimidin-4(3H)-one]
The IC50 of the first is lower: 500 to 5000 nM for the first, 50000 to 250000 nM for the second. The first is the more potent here.

For `C[C@H](CC1CCCCC1)C(=O)N1CCC(O)(Cn2cnc3cc(Cl)ccc3c2=O)C2(CCCC2)C1` (stereo partly drawn) [Example 129, 7-Chloro-3-((7-((R)-3-cyclohexyl-2-methylpropanoyl)-10-hydroxy-7-azaspiro[4.5]decan-10-yl)methyl)quinazolin-4(3H)-one], the IC50 was 500 to 5000 nM.

Reference: patent publication US20220033397A1, “PHARMACEUTICAL COMPOUNDS AND THEIR USE AS INHIBITORS OF UBIQUITIN SPECIFIC PROTEASE 19 (USP19)” (ALMAC DISCOVERY LIMITED, priority 2018, published 2022)
